# Assay results reported in patent publication US6156790A, “C-10 carbon-substituted artemisinin-like trioxane compounds having antimalarial, antiproliferative and antitumor activities” (priority 1997, dated 2000).
# Entries after “also recorded” stand apart in the source; their conditions may differ. Like-named read-outs stand apart in the source and are kept apart here.
# Tests used:
# A498 = assay: cells; type: cell-based; conditions: Homo sapiens
# M14 = assay: NCI 60 cell line screen (SRB), melanoma; conditions: Homo sapiens
# TK-10 = assay: cells; type: cell-based; conditions: Homo sapiens
# HOP-92 = assay: NCI 60 cell line screen (SRB), non-small cell lung cancer; type: cell-based; conditions: Homo sapiens
# HT29 = assay: cells; type: cell-based; conditions: Homo sapiens
# EKVX = assay: NCI 60 cell line screen (SRB), non-small cell lung cancer; type: cell-based; conditions: Homo sapiens; for IC (TGI): read-out: Log10 TGI (converted)
# UO-31 = assay: NCI 60 cell line screen (SRB), renal cancer; type: cell-based; conditions: Homo sapiens; for GI50: read-out: Log10 GI50 (converted); for CC50: read-out: Log10 LC50 (converted); for IC (TGI): read-out: Log10 TGI (converted)
# SW-620 = assay: NCI 60 cell line screen (SRB), colon cancer; type: cell-based; conditions: Homo sapiens; for CC50: read-out: Log10 LC50 (converted); for IC (TGI): read-out: Log10 TGI (converted)
# PC-3 = assay: cells; type: cell-based; conditions: Homo sapiens, PC-3; for GI50: read-out: Log10 GI50 (converted)
# U251 = assay: cells; type: cell-based; conditions: Homo sapiens; for CC50: U-251, read-out: Log10 LC50 (converted); for IC (TGI): U-251, read-out: Log10 TGI (converted)
# SNB-19 = assay: cells; type: cell-based; conditions: Homo sapiens
# UACC-257 = assay: cells; type: cell-based; conditions: Homo sapiens, read-out: Log10 LC50 (converted)
# NCI-H226 = assay: NCI 60 cell line screen (SRB), non-small cell lung cancer; type: cell-based; conditions: Homo sapiens
# SNB-75 = assay: cells; type: cell-based; conditions: Homo sapiens
# A549/ATCC = assay: NCI 60 cell line screen (SRB), non-small cell lung cancer; type: cell-based; conditions: Homo sapiens; for GI50: read-out: Log10 GI50 (converted); for IC (TGI): read-out: Log10 TGI (converted)
# RXF 393 = assay: cells; conditions: Homo sapiens; for GI50: RXF 393, read-out: Log10 GI50 (converted)
# MOLT-4 = assay: cells; conditions: Homo sapiens
# Experimental: The screening assay is performed on a 96-well microtitre plates.
# Dose response curves, shown in the above mentioned Figures, are obtained by exposing various cancer cell lines to compounds having a known concentration ([log10 M]), as discussed in detail above, and then plotting the percentage growth of each cell line for each concentration. […] As discussed previously, the five drug dilutions routinely tested range from 10^-4 to 10^-9 molar.
# MDA-N = assay: cells; type: cell-based; conditions: Homo sapiens
# NCI-H460 = assay: cells; type: cell-based; conditions: Homo sapiens, NCI-H460; for CC50: read-out: Log10 LC50 (converted)
# IGROVI = assay: cells; conditions: 60 cell; for GI50: read-out: Log10 GI50 (converted); for IC (TGI): read-out: Log10 TGI
# HCT-15 = assay: cells; type: cell-based; conditions: Homo sapiens, HCT-15
# MDA-MB231/ATCC = assay: cells; type: cell-based; conditions: Homo sapiens; for IC (TGI): MDA-MB-231, read-out: Log10 TGI (converted)
# MCF7 = assay: cells; type: cell-based; conditions: Homo sapiens, MCF7
# T-47D = assay: cells; type: cell-based; conditions: Homo sapiens, T47D, T-47D
# HCT-116 = assay: cells; type: cell-based; conditions: Homo sapiens; for CC50: read-out: Log10 LC50 (converted)
# NCI-H23 = assay: NCI 60 cell line screen (SRB), non-small cell lung cancer; type: cell-based; conditions: Homo sapiens; for IC (TGI): read-out: Log10 TGI (converted)
# SR = assay: cells; type: cell-based; conditions: Homo sapiens; for IC (TGI): read-out: Log10 TGI (converted)
# ACHN = assay: cells; conditions: Homo sapiens; for CC50: read-out: Log10 LC50 (converted); for IC (TGI): read-out: Log10 TGI
# HOP-62 = assay: cells; type: cell-based; conditions: Homo sapiens
# SK-MEL-2 = assay: cells; type: cell-based; conditions: Homo sapiens; for IC (TGI): read-out: Log10 TGI (converted)
# 60 cell line panel = assay: NCI 60 cell line screen, whole panel; type: cell-based
# KM12 = assay: cells; type: cell-based; conditions: Homo sapiens, read-out: Log10 TGI (converted)
# OVCAR-8 = assay: NCI 60 cell line screen (SRB), ovarian cancer; type: cell-based; conditions: Homo sapiens; for IC (TGI): read-out: Log10 TGI (converted)
# BT-549 = assay: cells; type: cell-based; conditions: Homo sapiens; for GI50: read-out: Log10 GI50 (converted); for IC (TGI): read-out: Log10 TGI (converted)
# LOX IMVI = assay: cells; type: cell-based; conditions: Homo sapiens
# [1] = read-out: Log10 LC50 (converted)
# [2] = read-out: Log10 TGI (converted)
# [3] = MOLT-4, read-out: concentration for primary growth inhibition
# [4] = read-out: Log10 GI50 (converted)
structure (smiles),measurement,setting,value
C[C@@H]1CC[C@H]2[C@@H](C)C(=O)O[C@@H]3O[C@@]4(C)CC[C@@H]1[C@]32OO4 [Artemisinin],CC50,A498; [1],> 100 µM
same,IC (TGI),"M14; M14, read-out: Log10 TGI",> 100 µM
same,CC50,TK-10; [1],> 100 µM
same,CC50,HOP-92; [1],> 100 µM
same,IC (TGI),HOP-92; [2],> 100 µM
same,IC (TGI),"HT29; HT-29, read-out: Log10 TGI (converted)",> 100 µM
same,CC50,EKVX; [1],> 100 µM
same,IC (TGI),EKVX,> 100 µM
same,GI50,UO-31,87.1 µM
same,CC50,UO-31,> 100 µM
same,IC (TGI),UO-31,100 µM
same,CC50,SW-620,> 100 µM
same,IC (TGI),SW-620,> 100 µM
same,GI50,PC-3,67.6 µM
same,CC50,PC-3; [1],> 100 µM
same,CC50,U251,> 100 µM
same,IC (TGI),U251,> 100 µM
same,CC50,SNB-19; [1],> 100 µM
same,CC50,UACC-257,> 100 µM
same,CC50,NCI-H226; [1],> 100 µM
same,IC (TGI),NCI-H226; [2],> 100 µM
same,IC (TGI),SNB-75; [2],> 100 µM
same,GI50,A549/ATCC,67.6 µM
same,CC50,A549/ATCC; [1],> 100 µM
same,IC (TGI),A549/ATCC,> 100 µM
same,GI50,RXF 393,83.2 µM
same,CC50,"RXF 393; RXF 393, read-out: Log10 LC50 (converted)",> 100 µM
same,CC50,"MOLT-4; MOLT-4, read-out: Log10 LC50 (converted)",> 100 µM
same,IC (TGI),"MOLT-4; MOLT-4, read-out: concentration for cytostasis",> 100 µM
same,CC50,"MOLT-4; MOLT-4, read-out: concentration for cytotoxicity",> 100 µM
same,GI50,MOLT-4; [3],> 100 µM
same,CC50,MDA-N; [1],> 100 µM
same,IC (TGI),MDA-N; [2],> 100 µM
same,CC50,NCI-H460,> 100 µM
same,GI50,IGROVI,49 µM
same,IC (TGI),IGROVI,> 100 µM
same,CC50,HCT-15; [1],> 100 µM
same,GI50,"MDA-MB231/ATCC; MDA-MB-231, read-out: Log10 GI50 (converted)",63.1 µM
same,CC50,"MDA-MB231/ATCC; MDA-MB-231, read-out: Log10 LC50 (converted)",> 100 µM
same,IC (TGI),MDA-MB231/ATCC,100 µM
same,CC50,MCF7; [1],> 100 µM
same,CC50,T-47D; [1],> 100 µM
same,CC50,HCT-116,> 100 µM
same,IC (TGI),HCT-116; [2],> 100 µM
same,IC (TGI),NCI-H23,> 100 µM
same,IC (TGI),SR,> 100 µM
same,CC50,ACHN,> 100 µM
same,IC (TGI),ACHN,> 100 µM
same,CC50,HOP-62; [1],> 100 µM
same,IC (TGI),HOP-62; [2],> 100 µM
same,CC50,SK-MEL-2; [1],> 100 µM
same,IC (TGI),SK-MEL-2,> 100 µM
same,GI50,"60 cell line panel; 60 cell, panel, read-out: Log10 GI50 Delta (converted)",85.1 µM
same,Log10 LC50 Delta,60 cell line panel; panel,-4.00
same,Log10 TGI Delta,60 cell line panel; panel,-4.00
same,Log10 TGI Range,60 cell line panel; panel,0.06
same,IC (TGI),KM12,> 100 µM
same,CC50,OVCAR-8; [1],> 100 µM
same,IC (TGI),OVCAR-8,> 100 µM
same,GI50,BT-549,87.1 µM
same,CC50,BT-549; [1],> 100 µM
same,IC (TGI),BT-549,100 µM
"C[C@H]1[C@@H](F)O[C@@H]2O[C@@]3(C)CC[C@H]4[C@H](C)CC[C@@H]1[C@@]24OO3 [Compound VI, 10β-Fluorodeoxoartemisinin]",GI50,LOX IMVI; [4],0.355 µM
same,CC50,LOX IMVI; [1],31.6 µM
same,IC (TGI),LOX IMVI; [2],275 µM
same,GI50,A498; [4],28.2 µM
same,GI50,"M14; M14, read-out: Log10 GI50 (converted)",17.4 µM
same,GI50,TK-10; [4],11 µM
same,IC (TGI),TK-10; [2],37.2 µM
same,GI50,HOP-92; [4],2.95 µM
same,GI50,"HT29; HT-29, read-out: Log10 GI50 (converted)",0.407 µM
same,GI50,EKVX; [4],2.95 µM
same,IC (TGI),EKVX,89.1 µM
same,GI50,UO-31,1.1 µM
same,CC50,UO-31,25.1 µM
same,IC (TGI),UO-31,5.01 µM
same,GI50,SW-620; [4],0.398 µM
same,CC50,SW-620,63.1 µM
same,IC (TGI),SW-620,15.5 µM
same,GI50,PC-3,0.251 µM
same,IC (TGI),PC-3; [2],46.8 µM
same,GI50,"U251; U-251, read-out: Log10 GI50 (converted)",0.447 µM
same,CC50,U251,42.7 µM
same,IC (TGI),U251,16.2 µM
same,GI50,SNB-19; [4],871 µM
same,GI50,NCI-H226; [4],5.75 µM
same,GI50,SNB-75; [4],14.5 µM
same,GI50,A549/ATCC,6.03 µM
same,IC (TGI),A549/ATCC,30.9 µM
same,GI50,RXF 393,14.8 µM
same,GI50,"MOLT-4; MOLT-4, read-out: Log10 GI50 (converted)",0.427 µM
same,IC (TGI),"MOLT-4; MOLT-4, read-out: Log10 TGI",36.3 µM
same,GI50,MOLT-4; [3],~0.1 µM
same,GI50,MDA-N; [4],1.15 µM
same,GI50,NCI-H460; [4],0.813 µM
same,CC50,NCI-H460,55 µM
same,IC (TGI),NCI-H460; [2],19.1 µM
same,GI50,IGROVI,1.23 µM
same,IC (TGI),IGROVI,18.2 µM
same,GI50,HCT-15; [4],0.339 µM
same,IC (TGI),HCT-15; [2],51.3 µM
same,IC (TGI),MDA-MB231/ATCC,56.2 µM
same,GI50,MCF7; [4],0.525 µM
same,GI50,T-47D; [4],0.302 µM
same,IC (TGI),T-47D; [2],47.9 µM
same,GI50,HCT-116; [4],0.195 µM
same,CC50,HCT-116,42.7 µM
same,GI50,NCI-H23; [4],0.631 µM
same,IC (TGI),NCI-H23,25.1 µM
same,GI50,SR; [4],0.427 µM
same,IC (TGI),SR,13.8 µM
same,GI50,ACHN; [4],1.02 µM
same,CC50,ACHN,38.9 µM
same,IC (TGI),ACHN,12.6 µM
same,GI50,HOP-62; [4],12.9 µM
same,GI50,SK-MEL-2; [4],7.59 µM
same,IC (TGI),SK-MEL-2,77.6 µM
same,IC (TGI),"60 cell line panel; 60 cell, mean over panel, read-out: Log10 TGI MG MID (converted)",41.7 µM
same,CC50,"60 cell line panel; Homo sapiens, 60 cell, mean over panel, read-out: Log10 LC50 MG MID (converted)",93.3 µM
same,potency compared with artemisinin,"60 cell line panel; Tables III, IV and V",more potent than artemisinin
same,potency compared with paclitaxel,"60 cell line panel; Tables III, IV and V",in most instances are as potent and in some instances more potent than paclitaxel; also recorded: equivalent to and in many instances higher in potency than paclitaxel
same,IC (TGI),KM12,26.9 µM
same,GI50,OVCAR-8; [4],2.04 µM
same,IC (TGI),OVCAR-8,51.3 µM
same,GI50,BT-549,0.759 µM
same,IC (TGI),BT-549,30.9 µM
